Measurements reported in US20130171125A1, “Methods for the Regulation of Cellular Metabolism Through the Modulation of SIRT3 Activity” (National Institutes of Health (NIH), U.S. Dept. of Health …, priority 2010, published 2013).

Assays:
[1] = tested on: HIF1α target genes; assay: Expression of HIF1α target genes (qRT-PCR) in SIRT3 WT and KO MEFs; type: cell-based, mouse; conditions: DMOG treatment
Experimental: (B) Fold induction of HIF1αtarget genes in response to hypoxia (n=6) measured by qRT-PCR. The ratio of hypoxic to normoxic gene expression is shown. (C) Fold induction of Glut1 and Hk2 in response to DMOG treatment was measured by qRT-PCR and the ratio of untreated to DMOG-treated gene expression is shown (n=6). […] Significance was assessed by one-way ANOVA. […] Error bars, ±SD.
(§1) A series of experiments were performed comparing the effects of hypoxia and DMOG treatment on SIRT3 WT and KO MEFs.

[2] = tested on: HIF1α; assay: HIF1α protein level (immunoblot) in SIRT3 WT and KO MEFs; type: cell-based, mouse; conditions: 1 mM DMOG
Experimental: Significance was assessed by one-way ANOVA. […] Error bars, ±SD. […] Error bars (except for growth curves), ±SEM. (*) p<0.05; (**) p<0.01.
as §1

[3] = tested on: SIRT3 KO MEFs; assay: Growth rates of SIRT3 WT and KO MEFs cultured with NAC; type: cell-based, mouse; conditions: media supplemented with 10 mM NAC
Experimental: (A) Nuclear extracts from shNS and shSIRT3 HEK293T cells treated with or without 10 μM MG-132 for 1 hour or 1 mM DMOG for 4 hours as indicated were immunoblotted with antibodies specific to hydroxylated HIF1α (HIF—OH) or total HIF1α. (B) Fold induction of HIF1αtarget genes in response to hypoxia (n=6) measured by qRT-PCR. The ratio of hypoxic to normoxic gene expression is shown. (C) Fold induction of Glut1 and Hk2 in response to DMOG treatment was measured by qRT-PCR and the ratio of untreated to DMOG-treated gene expression is shown (n=6). (D) The increase in ROS production with hypoxia was calculated as the fold change in ROS in hypoxic cells relative to normoxic controls. […] Significance was assessed by one-way ANOVA. […] Error bars, ±SD. Protein carbonyls (I) and lipid peroxidation (J) were measured in brown adipose tissue (BAT) of SIRT3 WT and KO mice (n=7). […] Error bars (except for growth curves), ±SEM. […]
To confirm that the metabolite patterns reflected an increase in glycolysis, lactate produced and secreted from SIRT3 WT and KO MEFs (n=5) was measured and normalized to cell number. […] To test whether this apparent increase in aerobic glycolysis supported an increase in biomass and proliferation, growth rates of the MEFs were measured by seeding SIRT3 WT and KO MEFs in six-well plates at a density of 5,000 cells/well and counting the number of cells in triplicate every 24 hours. […]

[4] = tested on: CAMA1 cells; assay: Glucose uptake and lactate production in CAMA1 control or SIRT3 overexpressing cells with rotenone or etomoxir; type: cell-based, human; conditions: 100 nM rotenone or 50 μg/ml etomoxir
Experimental: (A) Lactate production and (B) glucose consumption of MCF7, T47D and CAMA1 cells stably expressing empty vector or SIRT3 and cultured under hypoxia expressed as a ratio of empty-vector normoxic controls. (C) Relative glucose uptake and (D) relative lactate production in CAMA1 control or SIRT3 overexpressing cells incubated with or without 100 nM rotenone. (E) Glucose uptake and (F) lactate production in CAMA1 cell lines cultured in the presence or absence of 50 μg/ml etomoxir. (G) Immunoblots of CAMA1 cells stably expressing control vector or SIRT3-FLAG cultured at 1% oxygen for the indicated. (H) qRT-PCR of HIF1α target genes in CAMA1 cells cultured at 1% oxygen. (I) Induction of HIF1α target genes in response to hypoxia measured by qRT-PCR in CAMA1 cells. The ratio of normoxic to hypoxic gene expression in each cell line is shown. (J) Induction of HIF1α target genes in response to 1 mM DMOG treatment measured by qRT-PCR in CAMA1 cells. The ratio of untreated to DMOG-treated gene expression in each cell line is shown. Growth curves of CAMA1 cells (n=3) cultured in glucose (K) or galactose (L). Error bars, ±SD. (M) Schematic of the regulation of HIF1α and the Warburg effect by SIRT3. β-2-microglobulin was used as an endogenous control for qRT-PCR. Error bars (except for growth curves), ±SEM. (*) p<0.05; (**) p<0.01.
To examine the contribution of complex I activity or fatty acid oxidation on these phenotypes, glucose uptake and lactate production was measured in the presence of rotenone and etomoxir.
Metabolites were isolated by methanol extraction from cultured cells and analyzed by liquid chromatography-mass spectrometry (LC-MS). Lactate production was measured using the Lactate Reagent Kit (Trinity Biosciences). For immunoblotting, cell lysates and immunoprecipitations were probed with the following antibodies: Total OXPHOS antibody cocktail, complex II antibody cocktail, and OSCP (Mitosciences); Flag (Sigma); acetyl-lysine, LSD1 and hydroxylated HIF1α (Cell Signaling); SUCLA2 and GFP (Santa Cruz); GDH (USBiological); mouse HIF1α (Novus Biologicals) and human HIF 1 (BD Biosciences). The antibody recognizing murine SIRT3 was raised in rabbits against the (C) […] epitope conjugated to KLH at the added cysteine (Covance Research Products). SDH activity was determined by a colorometric spectrophotometric assay measuring the reduction of 2,6-dichlorophenolindophenol.

[5] = tested on: SIRT3 WT and KO MEFs; assay: Glucose uptake and lactate secretion in MEFs with oxidation inhibitors; type: cell-based, mouse; conditions: WT cells; 100 nM rotenone or 50 μg/ml etomoxir, 24 hours
From the text: (A) Schematic illustrating the metabolites that are increased or decreased in SIRT3 KO MEFs compared to SIRT3 WT MEFs (n=4), p<0.1. Metabolites in parentheses were not measured. PPP, pentose phosphate pathway. The nonoxidative and oxidative arms of the PPP are shown. Levels of glycolytic intermediates (B), TCA cycle intermediates (C), glucose (D), glucose-1-phosphate (E) and ribose-5-phosphate (F). Growth curves of SIRT3 WT and KO MEFs (n=3) cultured in media containing glucose (G) or galactose (H). Error bars, ±SD. (1-N) Glucose uptake and lactate production in SIRT3 WT and KO MEFs (n=6). (I) Relative glucose uptake and (J) lactate production in SIRT3 WT and KO MEFs. (K) Relative glucose uptake and (L) relative lactate production in SIRT3 WT and KO MEFs incubated with or without 100 nM rotenone. (M) Glucose uptake and (N) lactate production in SIRT3 WT and KO MEFs cultured in the presence or absence of 50 μg/ml etomoxir. Cells were treated with drugs for 24 hours before measuring glucose uptake and lactate. All error bars (except growth curves), ±SEM. […]
Metabolites were isolated by methanol extraction from cultured cells and analyzed by liquid chromatography-mass spectrometry (LC-MS). Lactate production was measured using the Lactate Reagent Kit (Trinity Biosciences). […] SDH activity was determined by a colorometric spectrophotometric assay measuring the reduction of 2,6-dichlorophenolindophenol.

[6] = tested on: SDHA; assay: In vitro deacetylation of SDHA in complex II immunoprecipitates; type: biochemical, mouse; conditions: with NAD, 2 hours at 37° C.

Row | Molecule | glucose uptake [4] | lactate production [4] | glycolysis (glucose uptake and lactate production) [5] | further results
1 | COC(=O)CNC(=O)C(=O)OC [DMOG, dimethyloxaloylglycine] | – | – | – | expression of HIF1α target genes (Glut1, Hk2) [1]: induce expression of HIF1α target genes; HIF1α stabilization [2]: stabilize HIF1α
2 | CC(=O)N[C@@H](CS)C(=O)O [NAC, N-acetylcysteine] | – | – | – | proliferation (growth rate) [3]: rescued the increased proliferation of SIRT3 KO MEFs
3 | CCOC(=O)[C@@]1(CCCCCCOc2ccc(Cl)cc2)CO1 [etomoxir] | increased | increased | increased | –
4 | C=C(C)[C@H]1Cc2c(ccc3c2O[C@@H]2COc4cc(OC)c(OC)cc4[C@@H]2C3=O)O1 [rotenone] | increased | increased | increased | –
5 | SIRT3-H248Y-His: catalytically inactive SIRT3 (protein, UniProt Q9NTG7 1-399, looked up, variant H248Y, His tag) MAFWGWRAAAALRLWGRVVERVEAGGGVGPFQACGCRLVLGGRDDVSAGLRGSHGARGEPLDPARPLQRPPRPEVPRAFRRQPRAAAPSFFFSSIKGGRRSISFSVGASSVVGSGGSSDKGKLSLQDVAELIRARACQRVVVMVGAGISTPSGIPDFRSPGSGLYSNLQQYDLPYPEAIFELPFFFHNPKPFFTLAKELYPGNYKPNVTHYFLRLLHDKGLLLRLYTQNIDGLERVSGIPASKLVEAYGTFASATCTVCQRPFPGEDIRADVMADRVPRCPVCTGVVKPDIVFFGEPLPQRFLLHVVDFPMADLLLILGTSLEVEPFASLTEAVRSSVPRLLINRDLVGPLAWHPRSRDVAQLGDVVHGVESLVELLGWTEEMRDLVQRETGKLDGPDK | – | – | – | deacetylation of SDHA [6]: not
